According to patent publication US20060037100A1, “Fungal resistant transgenic pepper plants and their production method” (priority 2004, published 2006):

System: pepper cells
Test: Hygromycin sensitivity of pepper cells (growth of hypocotyl explants on SIM medium)
Format: cell-based, Capsicum annuum L. (pepper)
Protocol: The sensitivity of untransformed wild type (WT) and transformed (T) hypocotyl explants to hygromycin B was examined by using shoot induction medium containing 0, 5, 10, 20, 50 mg/l of hygromycin B (A). Fresh weight (mg) of hypocotyl explants growing on the medium containing hygromycin B (B).
Selection of transgenic cells was preformed in medium containing 20 mg/l hygromycin B in all experiments.

Question: `CN[C@H]1C[C@@H](N)[C@H](O)[C@@H](O[C@@H]2O[C@H](CO)[C@H](O)[C@@H]3OC4(O[C@H]23)O[C@H]([C@@H](N)CO)[C@H](O)[C@H](O)[C@H]4O)[C@@H]1O` (some centres unmarked) [hygromycin B] was tested. Which “effect on the growth of pepper cells” value (hygromycin B 5 mg/l in SIM medium, after 14 days of culture) did it give?
Answer: The value was “severe inhibitory effect”.

Question: What about the “hygromycin B concentration up to which transgenic cells showed resistance” value (transgenic (transformed) pepper cells on SIM medium) of the same compound?
Answer: The value was “up to 50 mg/l”.
